Results as given in patent publication US10308620B2, “Muscarinic M1 receptor positive allosteric modulators” (SUVEN LIFE SCIENCES LIMITED, priority 2015, dated 2019).

What was measured:
[1] = tested on: soluble amyloid precursor protein α (sAPPα); assay: Cortical sAPPα levels in mice brain (ELISA); type: in vivo; conditions: male C57BL/6J mice, 10 mg/kg, i.p., sixty minutes post treatment; FIG. 4
Description: (§1) Modulation of Soluble Amyloid Precursor Protein α (sAPPα) Levels in Cortex
Estimation of Cortical sAPPα Levels in Mice Brain
Male C57BL/6J mice ([…]) were randomly divided (n=8 group) into five groups. Control group of mice were intraperitoneally (i.p.) administered with vehicle (99.75% of 0.25% HEC HHX+0.25% tween 80) and the treatment group of mice received a single intraperitoneal injection of example 18 (dose volume of 10 mL/kg). Mice were sacrificed by cervical dislocation at 60 minutes after administration of test compound. Brains were quickly isolated and the cortex was dissected at −20° C. The cortex was immediately kept on a dry ice and weighed before being stored at −80° C. until quantification of sAPPα using Enzyme-linked immunosorbent assay (ELISA).
• 1. […]
(§2) To investigate the role of an acute treatment of test compound on sAPPα levels, the expression of this protein was measured in homogenates obtained from the cortex of treated and untreated rats by employing ELISA assay. […]
(§3) Statistical analyses were performed using the Graph Pad Prism (Version 4). Results are expressed as Mean±SEM levels of sAPPα expressed as percentage of control values (rats treated with vehicle). Statistical significance after treatment was assessed using One-Way ANOVA followed by Dunnett's post test and the significance level was set below p value less than 0.05.

[2] = tested on: soluble amyloid precursor protein α (sAPPα); assay: Cortical sAPPα levels in rat brain (ELISA); type: in vivo; conditions: male Wistar rats, 10 mg/kg, i.p., sixty minutes post treatment; FIG. 5
Description: as §1
Estimation of Cortical sAPPα Levels in Rat Brain
Male Wistar rats (250±40 grams) were randomly divided (n=8 group) into different treatment groups. Control group of rats were intraperitoneally (i.p.) administered with vehicle (99.75% of 0.25% HEC HHX+0.25% tween 80). Rats from treatment groups received a single intraperitoneal injection of test compound (dose volume of 2 mL/kg). Rats were sacrificed by cervical dislocation at 60 minutes after administration of test compound. Brains were quickly isolated and the cortex was dissected at −20° C. The cortex was immediately kept on a dry ice and weighed before being stored at −80° C. until quantification of sAPPα using Enzyme-linked immunosorbent assay (ELISA).
• 1. […]
as §2, §3

[3] = Rodent pharmacokinetic study; type: in vivo, rat; conditions: male Wistar rats
Description: Rodent Pharmacokinetic Study
Male Wistar rats (260±50 grams) were used as experimental animals. Animals were housed individually in polypropylene cage. Two days prior to study, male Wistar rats were anesthetized with isoflurane for surgical placement of jugular vein catheter. Rats were randomly divided for oral (3 mg/kg) and intravenous (1 mg/kg) dosing (n=3/group) and fasted overnight before oral dosing (p.o.). However, rats allocated to intravenous (i.v.) dosing food and water was provided ad libitum.
At pre-determined point, blood was collected through jugular vein and replenished with an equivalent volume of normal saline. Collected blood was transferred into a labeled eppendorf tube containing 10 μL of heparin as an anticoagulant. Typically blood samples were collected at following time points: 0.08, 0.25, 0.5, 1, 2, 4, 6, 8, and 24 hours post dose. Blood was centrifuged at 4000 rpm for 10 minutes. Plasma was separated and stored frozen at −80° C. until analysis. The concentrations of the test compounds were quantified in plasma by qualified LC-MS/MS method using suitable extraction technique. The test compounds were quantified in the calibration range around 1-1000 ng/mL in plasma. Study samples were analyzed using calibration samples in the batch and quality control samples spread across the batch.
Pharmacokinetic parameters Cmax, Tmax, AUCt, T1/2, clearance, Vz and bioavailability were calculated by non-compartmental model using standard non-compartmental model by using Phoenix WinNonlin 6.0.2 or 6.0.3 version Software package.

rats = assay: Modulation of cerebral blood flow in frontal cortex (Laser Doppler); type: in vivo, rat; conditions: intravenous, anaesthetized rats; FIG. 6
Description: Modulation of Cerebral Blood Flow in Frontal Cortex:
The effect of test compound on modulation of cerebral blood flow was evaluated using rats.
Rats were acclimatized to the laboratory environment for at least 7 days. Rats (300-350 grams) were housed in a group of four in a controlled environment (Temp=21±3° C.; Humidity=30-70%) and maintained on a 12-hour light/dark cycle with lights on at 07:00 AM. Food and water was provided ad libitum.
Rats were anaesthetized with 12% urethane (i.p.). Animal's body core temperature was maintained at 37° C. via a heating pad and rectal temperature probe. A small incision was made at one of the ventral side of the hind limb and the femoral vein was cannulated with PE10 tubing for drug application. Then animal was placed into a stereotaxic frame and a midline incision was made to expose the skull. A burr hole was drilled over the frontal cortex (stereotaxic coordinates 1 mm anterior and 4 mm lateral to bregma). Oxygen was supplied through the nose cone of the seterotaxic apparatus which was connected to the controlled gaseous supplier with a flow of 200 mL/minute. Laser Doppler probe (AD Instruments Inc) was placed over the hole to monitor cerebral blood flow. […] Data obtained was calculated as percent increase relative to resting basal blood flow level. […]

[4] = rat, plasma, iv, 1 mg/kg i.v. (bolus)
[5] = rat, plasma, 3 mg/kg oral (gavage)

- AUC0-t ([3]; 1 mg/kg i.v. (bolus)): 929 ± 27 ng·h/mL
- AUC0-t ([3]; 3 mg/kg oral (gavage)): 2070 ± 839 ng·h/mL
- clearance [3, 4]: 17 ± 1 mL/min/kg
- half-life [3, 4]: 2.1 ± 0.1 h
- Vd ([3]; rat, plasma, iv, 1 mg/kg i.v. (bolus), read-out: Vz): 3.2 ± 0.1 L/kg
- Cmax [3, 5]: 477 ± 96 ng/mL
- Tmax [3, 5]: 0.42 ± 0.14 h
- half-life [3, 5]: 3.9 ± 0.8 h
- bioavailability ([3]; rat, plasma, 3 mg/kg oral vs 1 mg/kg i.v.): 74 ± 30%
SMILES: O=C(N[C@H]1CCCC[C@@H]1O)C1=CN(Cc2cccc(F)c2F)c2ccccc2O1 [Example 18, N-(cis-1S, 2S-2-Hydroxycyclohexyl)-4-(2,3-difluorobenzyl)-4H-benzo[1,4]oxazine-2-carboxamide]
- mean increase in cortical sAPPα levels [1]: 38%
- mean maximum increase in cortical sAPPα levels [2]: 26%
- cerebral blood flow in the frontal cortex (rats): significantly increased
